Patent US20210008541A1, “INSTRUMENT AND METHODS FOR AUTOMATED SAMPLE PREPARATION FOR MICROORGANISM IDENTIFICATION AND DIFFERENTIATION” (Accelerate Diagnostics, Inc., priority 2019, published 2021)

Legend:
PROV_ATCC_6380 = assay: Disk diffusion inhibition of RAM ingredients on MHA plates; assay type: cell-based, Proteus vulgaris; conditions: 100 μL dispensed on MHA plate, lawned with PROV_ATCC_6380
Procedure: (§1) Thus, each of the ingredients was checked for potential inhibition. The first portion of this study was meant to determine the source of inhibition and to formulate different variations of a respiratory artificial matrix (RAM) to use as a pellet former. To complete this objective, 100 μL of each of the ingredients was dispensed onto the center of four different Mueller Hinton Agar (MHA) plates. After letting the plates dry for ˜2 hours they were lawned with the following four bacteria: ECOL_ATCC_25922, SAUR_ATCC_29213, PROV_ATCC_6380 and PRMI_IHMA_827374. The following day the plates were measured for zones of inhibition. Following this, the pellet former recipe was optimized to exclude non-sterile components. […] Many fresh positive specimens of varying viscosities were then tested with an assay that incorporated this pellet former by adding 500 μL to the capsule with 1500 μL of BAL or mini-BAL specimen.

SAUR_ATCC_29213 = assay: as above; assay type: cell-based, Staphylococcus aureus; conditions: 100 μL dispensed on MHA plate, lawned with SAUR_ATCC_29213
Procedure: as §1

PRMI_IHMA_827374 = assay: as above; assay type: cell-based, Proteus mirabilis; conditions: 100 μL dispensed on MHA plate, lawned with PRMI_IHMA_827374
Procedure: as §1

[1] = test system: ECOL_ATCC_25922, SAUR_ATCC_29213, PROV_ATCC_6380 and PRMI_IHMA_827374; assay: Disk diffusion inhibition of RAM ingredients, all four lawned bacteria; assay type: cell-based
Procedure: Thus, each of the ingredients was checked for potential inhibition. […] To complete this objective, 100 μL of each of the ingredients was dispensed onto the center of four different Mueller Hinton Agar (MHA) plates. After letting the plates dry for ˜2 hours they were lawned with the following four bacteria: ECOL_ATCC_25922, SAUR_ATCC_29213, PROV_ATCC_6380 and PRMI_IHMA_827374. The following day the plates were measured for zones of inhibition.

ECOL_ATCC_25922 = assay: Disk diffusion inhibition of RAM ingredients on MHA plates; assay type: cell-based, Escherichia coli; conditions: 100 μL dispensed on MHA plate, lawned with ECOL_ATCC_25922
Procedure: as §1

SMILES: O=C(O)CN(CCN(CC(=O)O)CC(=O)O)CCN(CC(=O)O)CC(=O)O [DTPA alone, DTPA]
- Disk Diffusion Inhibition (zone of inhibition) (PROV_ATCC_6380): 26 mm
- Disk Diffusion Inhibition (zone of inhibition) (SAUR_ATCC_29213): 19 mm
- Disk Diffusion Inhibition (zone of inhibition) (PRMI_IHMA_827374): 30 mm
- Inhibition by disk diffusion method [1]: inhibited each of the organisms tested
- Disk Diffusion Inhibition (zone of inhibition) (ECOL_ATCC_25922): 7 mm
